In brackets after ≈: the same amount, converted by molar mass. Activity calls are given as the source filed them. The calls are words filed in the database; no cut-off is given here. Numbered stars: 1 amine (or outer) side, 2 acyl side, 3 side chain; on linkers, the order of the positions; unused ones are H or OH. Square brackets hold non-standard residues; d marks the D form. Peptide text beside a SMILES is read from it. * marks the point of attachment. X1 = CCC(=O)CC(O)CC(C)C[C@H](N[*:1])C(=O)[*:2]; X2 = CCCCCCC(C)C[C@@H](N[*:1])C(=O)[*:2]; Aib = CC(C)(N)C(=O)O; Butyryl = CCCC(=O)*; X3 = CC(CNCCO)N*; βAla = NCCC(=O)O
Legend:
[1] = Effect on PI3K/AKT/mTOR pathway in PTEN deficient human MDA468 cells assessed as inhibition of S6 phosphorylation after 16 hrs by Western blot; assay type: cell-based; settings: MDA-MB-468
[2] = Growth inhibition of PTEN deficient human MDA468 cells after 3 days by MTS assay; assay type: functional, cell-based; settings: MDA-MB-468, 72 h
[3] = Effect on PI3K/AKT/mTOR pathway in PTEN deficient human MDA468 cells assessed as phosphorylated AKT level at 0.01 to 0.1 ug/mL after 16 hrs by Western blot; assay type: cell-based; settings: MDA-MB-468
[4] = Effect on PI3K/AKT/mTOR pathway in PTEN deficient human MDA468 cells assessed as inhibition of 4EBP1 phosphorylation after 16 hrs by Western blot; assay type: cell-based; settings: MDA-MB-468
[5] = tested on: MDA-MB-435; test: Growth inhibition of human MDA435 overexpressing PTEN after 3 days by MTS assay; assay type: functional; settings: MDA-MB-435, 72 h
[6] = Effect on PI3K/AKT/mTOR pathway in PTEN deficient human MDA468 cells assessed as increase in p27Kip1 level at 0.01 to 0.1 ug/mL after 16 hrs by Western blot; assay type: cell-based; settings: MDA-MB-468
[7] = Effect on PI3K/AKT/mTOR pathway in PTEN deficient human MDA468 cells assessed as inhibition of S6K phosphorylation after 16 hrs by Western blot; assay type: cell-based; settings: MDA-MB-468
[8] = Effect on PI3K/AKT/mTOR pathway in PTEN deficient human MDA468 cells assessed as inhibition of cyclin D3 level at 0.01 to 0.1 ug/mL after 16 hrs by Western blot; assay type: cell-based; settings: MDA-MB-468

## CCCCCCC(C)C[C@@H](NC(=O)C(C)(C)NC(=O)C(C)(C)NC(=O)[C@H](CC(C)CC(O)CC(=O)CC)NC(=O)[C@@H]1CCCN1C(=O)CCC)C(=O)N[C@@H](CC(C)C)C(=O)NC(C)(C)C(=O)N[C@@H](CC(C)C)C(=O)NCCC(=O)NC(C)CNCCO (stereo partly drawn) [CULICININ D] (Butyryl-P[X1][Aib][Aib][X2]L[Aib]L[βAla]-X3)
[1]
  Activity: Dose-dependent effect
[2]
  IC50: < 0.007 µg/mL
[3]
  Activity: inactive
[4]
  Activity: Dose-dependent effect
[5]
  IC50: 1.6 µg/mL (≈ 1.3 µM)
[6]
  Activity: Active
[7]
  Activity: Dose-dependent effect
[8]
  Activity: Active

— ChEMBL document CHEMBL1157940, “Culicinin D, an antitumor peptaibol produced by the fungus Culicinomyces clavisporus, strain LL-12I252” (J Nat Prod, 2006)
